Test results as given in patent US9840716B2, “Resveratrol-enriched rice and the use thereof” (REPUBLIC OF KOREA (MANAGEMENT: RURAL DEVELOPMENT …, priority 2012, dated 2017).

What was measured:
[1] = test system: animal models (mice) induced with a metabolic disease by a long-term high fat diet; test: Comparative measurement of blood glucose in animal models induced with a metabolic disease; type: in vivo, C57BL/6 inbred mice; details: 12 weeks of feeding, compared with control or comparison groups
From the text: The effects of rice containing resveratrol of the present invention at high concentration on a metabolic disease were examined using animal models (mice) induced with a metabolic disease by a long-term high fat diet. Particularly, each of 15 C57BL/6 inbred mice was fed with a high fat diet for 12 weeks, thereby establishing models induced with a metabolic disease such as diabetes, obesity, hyperlipidemia, hypercholesterolemia, etc. Next, the feed produced from seeds of transformed rice or Dongjin rice was distributed to animals for 12 weeks. After 12 weeks of distribution, via blood sampling from a tail vein once every 3 weeks, blood glucose, cholesterol, etc., were analyzed, thereby examining the effects of resveratrol-enriched transgenic rice and transformed rice in animal models induced with a metabolic disease. As described above, after feeding feed for experimental animals, in which carbohydrate components were replaced with Dongjin rice and resveratrol-enriched transgenic rice to mice induced with a metabolic disease, the level of blood glucose was measured (FIG. 2). […] As described above, after feeding the feed, in which carbohydrate components were replaced with Dongjin rice and resveratrol-enriched transgenic rice, to mice with an induced metabolic disease, the level of blood glucose was measured (FIG. 5).

[2] = test system: yeasts; details: on average, when resveratrol is added; cited from earlier work

In the case of `Oc1ccc(C=Cc2cc(O)cc(O)c2)cc1` [resveratrol], the “blood glucose level (result in words)” value [1] is listed as “did not show a remarkable difference” and the “increase of the life span of yeasts” value [2] is listed as 70%.
